From US20110086759A1, “CHEMICAL COMPOUNDS” (SYNGENTA CROP PROTECTION, INC., priority 2007, published 2011) come the findings set out here.

What all share (type): in vivo
For assay [1], the system named is Alopecurus myosuroides (ALOMY). The assay can be described thus: Pre-emergence biological efficacy, glasshouse pot test. To be noted: 312 h, pre-emergence, 1,000 g/ha, evaluated after 13 days (100=total damage; 0=no damage), read-out: Percentage damage ALOMY. The method in brief:
(§1)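 Standard soil, pots, sown then sprayed at day 1 with 1000 or 250 g/ha test compound. Glasshouse: 24/16 °C, 14 h photoperiod, 65% humidity, twice-daily watering. Evaluation day 13, 0–100 damage score.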

Assay [2] relates to Amaranthus retoflexus (AMARE). The assay is described as above. To be noted: Amaranthus retroflexus, 312 h; pre-emergence, 1,000 g/ha, evaluated after 13 days (100=total damage; 0=no damage); read-out: Percentage damage AMARE. In short, it runs like this:
as §1

Assay [3] deals with Echinochloa crus-galli (ECHCG). The description is as above. Particulars: 312 h, pre-emergence, 1,000 g/ha, evaluated after 13 days (100=total damage; 0=no damage), read-out: Percentage damage ECHCG. The method in brief: as §1
The test system of assay [4] is Ipomea hederaceae (IPOHE). The assay is described as above. Particulars: Ipomoea hederacea, 312 h; pre-emergence, 1,000 g/ha, evaluated after 13 days (100=total damage; 0=no damage); read-out: Percentage damage IPOHE. In short, it runs like this:
as §1

Assay [5] deals with Setaria faberi (SETFA). The assay is described as above. To be noted: 312 h, pre-emergence, 1,000 g/ha, evaluated after 13 days (100=total damage; 0=no damage), read-out: Percentage damage SETFA. The method in brief:
as §1

The test system of assay [6] is Solanum nigrum (SOLNI). The description is as above. Particulars: 312 h, pre-emergence, 1,000 g/ha, evaluated after 13 days (100=total damage; 0=no damage), read-out: Percentage damage SOLNI. The method in brief:
as §1

The test system of assay [7] is Alopecurus myosuroides (ALOMY). The assay can be described thus: Post-emergence biological efficacy, glasshouse pot test. To be noted: 312 h, post-emergence, 1,000 g/ha, evaluated after 13 days (100=total damage; 0=no damage), read-out: Percentage damage caused to weed species, ALOMY. The method in brief: (§2)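 Scored 13 days after spraying on a 0 (no damage) to 100 (total damage) scale. Treatment was a post-emergence spray at 1000 or 250 g/ha, from acetone/water 50:50 plus 0.5% Tween 20, onto 8-day-old plants in soil pots. Growth at 24/16° C, 14 h photoperiod, 65% humidity, watered twice daily.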

Assay [8] concerns Amaranthus retoflexus (AMARE). Described as above. To be noted: Amaranthus retroflexus, 312 h; post-emergence, 1,000 g/ha, evaluated after 13 days (100=total damage; 0=no damage); read-out: Percentage damage caused to weed species, AMARE. The method in brief: as §2
For assay [9], the system named is Echinochloa crus-galli (ECHCG). The description is as above. Particulars: 312 h, post-emergence, 1,000 g/ha, evaluated after 13 days (100=total damage; 0=no damage), read-out: Percentage damage caused to weed species, ECHCG. In short, it runs like this:
as §2

The test system of assay [10] is Ipomea hederaceae (IPOHE). The description is as above. Particulars: Ipomoea hederacea, 312 h; post-emergence, 1,000 g/ha, evaluated after 13 days (100=total damage; 0=no damage); read-out: Percentage damage caused to weed species, IPOHE. In short, it runs like this: as §2
Assay [11] concerns Setaria faberi (SETFA). The description is as above. To be noted: 312 h, post-emergence, 1,000 g/ha, evaluated after 13 days (100=total damage; 0=no damage), read-out: Percentage damage caused to weed species, SETFA. In short, it runs like this:
as §2

For assay [12], the system named is Solanum nigrum (SOLNI). The assay is described as above. Particulars: 312 h, post-emergence, 1,000 g/ha, evaluated after 13 days (100=total damage; 0=no damage), read-out: Percentage damage caused to weed species, SOLNI. The method in brief:
as §2

Structures are written as SMILES.

As to `COC(=O)c1nc(C2CC2)nc(NCc2c(Cl)cccc2Cl)c1Cl` [Compound 4-104, 5-Chloro-2-cyclopropyl-4-(2,6-dichlorophenyl-methylamino)-6-methoxycarbonyl-pyrimidine], the pest or weed control at 1000 g/ha in [1] is 10%; in assay [2] it was 40%; in [3], 20%; in assay [4], 20%; in assay [5] it was 0%; in assay [6], 30%. The pest or weed control at 1000 g/ha worked out at 20% in assay [7]; 100% in [8]; 90% in assay [9]; 100% in assay [10]; 90% in assay [11]; 90% in assay [12].
For `COC(=O)c1nc(C2CC2)nc(NCc2ncc(C(F)(F)F)cc2Cl)c1Cl` [Compound 4-155, 5-Chloro-4-(3-chloro-5-trifluoromethylpyrid-2-ylmethylamino)-2-cyclopropyl-6-methoxycarbonyl-pyrimidine], the pest or weed control at 1000 g/ha in assay [1] is 20%; in assay [2] it was 90%; in assay [3], 80%; in assay [4], 90%; in assay [5], 20%; in assay [6], 70%. Also, the pest or weed control at 1000 g/ha in [7] amounted to 30%; in [8], 100%; in [9] it was 70%; in [10], 90%; in assay [11], 70%; in assay [12], 90%.
